Laboratory results from ChEMBL document CHEMBL1201862, “PubChem BioAssay data set” (2004).
Values joined by “and” are separate entries in the source; they are usually repeats but may differ in a detail not shown here. Equal values may be shown once.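 Grown in 96-well plates, cells were treated for 48 hours with each compound at five concentrations. Insufficient inhibition: endpoint recorded as highest concentration tested. Here, GI50 denotes the concentration required for 50% inhibition of growth.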 Active and inactive are the calls of the source. Rule as the data show it: active = GI50 up to about 1.1 µM and inactive = higher.

Key:
Assay in all cases: NCI-60 cell line screen, 48 h
HOP-62 = system: HOP-62
ACHN = system: ACHN
Malme-3M = system: Malme-3M
KM12 = system: KM12
CAKI-1 = system: CAKI-1
SK-MEL-2 = system: SK-MEL-2
UACC-257 = system: UACC-257
UACC-62 = system: UACC-62
COLO 205 = system: COLO 205
OVCAR-8 = system: OVCAR-8
SW-620 = system: SW-620
NCI-H522 = system: NCI-H522
SK-MEL-28 = system: SK-MEL-28
DU-145 = system: DU-145
MDA-MB-435 = system: MDA-MB-435
MDA-MB-231 = system: MDA-MB-231
MCF7 = system: MCF7
MDA-N = system: MDA-N
PC-3 = system: PC-3
BT-549 = system: BT-549

CC(C)N(C(=O)C12C3C4C5C3C1(C#N)C5C42)C(C)C (configuration not stated)
GI50 (HOP-62): > 100 µM (inactive)
GI50 (ACHN): > 100 µM (inactive)
GI50 (Malme-3M): > 100 µM (inactive)
GI50 (KM12): > 100 µM (inactive)
GI50 (CAKI-1): > 100 µM (inactive)
GI50 (SK-MEL-2): > 100 µM (inactive)
GI50 (UACC-257): > 100 µM (inactive)
GI50 (UACC-62): > 100 µM (inactive)
GI50 (COLO 205): > 100 µM (inactive)
GI50 (OVCAR-8): > 100 µM (inactive)
GI50 (SW-620): 11.6 µM (inactive)
GI50 (NCI-H522): > 100 µM (inactive)
GI50 (SK-MEL-28): > 100 µM (inactive)

C=C1C(=O)OC2CC1C(OC(C)=O)C/C(C)=C/CC/C(C)=C\CCC2(C)O (configuration not stated)
GI50 (HOP-62): 15.3 µM (inactive) and 13.6 µM (inactive)
GI50 (ACHN): 4.23 µM (inactive) and 2.37 µM (inactive)
GI50 (Malme-3M): 3.25 µM (inactive)
GI50 (DU-145): 3.95 µM (inactive) and 5.77 µM (inactive)
GI50 (MDA-MB-435): 4.19 µM (inactive) and 4.68 µM (inactive)
GI50 (CAKI-1): 4.34 µM (inactive) and 2.96 µM (inactive)
GI50 (MDA-MB-231): 7.13 µM (inactive) and 8.95 µM (inactive)
GI50 (UACC-257): 3.03 µM (inactive) and 5.11 µM (inactive)
GI50 (COLO 205): 3.98 µM (inactive) and 3.92 µM (inactive)
GI50 (OVCAR-8): 3.36 µM (inactive) and 3.17 µM (inactive)
GI50 (SW-620): 2.64 µM (inactive) and 3.4 µM (inactive)
GI50 (NCI-H522): 1.44 µM (inactive) and 1.36 µM (inactive)
GI50 (MCF7): 3.8 µM (inactive) and 3.74 µM (inactive)
GI50 (SK-MEL-28): 3.19 µM (inactive) and 2.95 µM (inactive)
GI50 (MDA-N): 2.92 µM (inactive) and 4.09 µM (inactive)

COc1ccc2c(c1)CC1Cc3cc(OC)c(OC)cc3CN1CC2 (configuration not stated)
GI50 (HOP-62): 71.3 µM (inactive)
GI50 (ACHN): 21.5 µM (inactive)
GI50 (Malme-3M): 40.2 µM (inactive)
GI50 (KM12): 34.7 µM (inactive)
GI50 (DU-145): 36.6 µM (inactive)
GI50 (PC-3): 37.4 µM (inactive)
GI50 (MDA-MB-435): 37.9 µM (inactive)
GI50 (CAKI-1): 35.5 µM (inactive)
GI50 (SK-MEL-2): 70.1 µM (inactive)
GI50 (MDA-MB-231): 42.6 µM (inactive)
GI50 (UACC-257): 33.8 µM (inactive)
GI50 (UACC-62): 25.2 µM (inactive)
GI50 (BT-549): 32.6 µM (inactive)
GI50 (COLO 205): 23.7 µM (inactive)
GI50 (OVCAR-8): 33.8 µM (inactive)
GI50 (SW-620): 47.1 µM (inactive)
GI50 (NCI-H522): 34.6 µM (inactive)
GI50 (SK-MEL-28): 42.8 µM (inactive)

CCOP1(=O)C=C(C)C(=C(Cl)Cl)C(C)=C1 (configuration not stated)
GI50 (HOP-62): 15.4 µM (inactive)
GI50 (ACHN): 17.1 µM (inactive)
GI50 (Malme-3M): 17.1 µM (inactive)
GI50 (KM12): 1.71 µM (inactive)
GI50 (CAKI-1): 11.6 µM (inactive)
GI50 (SK-MEL-2): 3.72 µM (inactive)
GI50 (UACC-257): 3.54 µM (inactive)
GI50 (UACC-62): 6.46 µM (inactive)
GI50 (COLO 205): 11.7 µM (inactive)
GI50 (OVCAR-8): 20.7 µM (inactive)
GI50 (SW-620): 7.45 µM (inactive)
GI50 (NCI-H522): 3.58 µM (inactive)
GI50 (SK-MEL-28): 22.5 µM (inactive)

CCc1nc(N)nc(N)c1-c1ccc(Cl)c(Cl)c1 [ETOPRINE]
GI50 (HOP-62): 2.93 µM (inactive)
GI50 (ACHN): 2.86 µM (inactive)
GI50 (Malme-3M): 5.79 µM (inactive)
GI50 (KM12): 8.51 µM (inactive)
GI50 (DU-145): 11 µM (inactive)
GI50 (PC-3): 34.5 µM (inactive)
GI50 (MDA-MB-435): 0.818 µM (active)
GI50 (CAKI-1): 32 µM (inactive)
GI50 (SK-MEL-2): 23.4 µM (inactive)
GI50 (MDA-MB-231): > 100 µM (inactive)
GI50 (UACC-257): 8.38 µM (inactive)
GI50 (UACC-62): 0.711 µM (active)
GI50 (BT-549): 51.3 µM (inactive)
GI50 (COLO 205): 8.43 µM (inactive)
GI50 (SW-620): 5.32 µM (inactive)
GI50 (NCI-H522): 5.81 µM (inactive)
GI50 (MCF7): 3.05 µM (inactive)
GI50 (SK-MEL-28): > 100 µM (inactive)

O=C1CCCc2ccc3c(c21)CC1(Cc2ccccc2C1)C3
GI50 (HOP-62): 39.1 µM (inactive)
GI50 (ACHN): 12.2 µM (inactive)
GI50 (Malme-3M): 33.2 µM (inactive)
GI50 (KM12): 38.9 µM (inactive)
GI50 (PC-3): 98.4 µM (inactive)
GI50 (MDA-MB-435): 27 µM (inactive)
GI50 (SK-MEL-2): > 100 µM (inactive)
GI50 (MDA-MB-231): 27.5 µM (inactive)
GI50 (UACC-257): 21.4 µM (inactive)
GI50 (UACC-62): 26.1 µM (inactive)
GI50 (COLO 205): 17.2 µM (inactive)
GI50 (OVCAR-8): 34.2 µM (inactive)
GI50 (NCI-H522): 23.9 µM (inactive)
GI50 (MCF7): 57.5 µM (inactive)
GI50 (MDA-N): 19 µM (inactive)

Cc1ccc(OCC(=O)N2N=C(c3ccccc3)CC2(O)c2ccccc2)cc1 (configuration not stated)
GI50 (HOP-62): 27.8 µM (inactive)
GI50 (ACHN): > 100 µM (inactive)
GI50 (Malme-3M): > 100 µM (inactive)
GI50 (KM12): 99.5 µM (inactive)
GI50 (CAKI-1): > 100 µM (inactive)
GI50 (SK-MEL-2): > 100 µM (inactive)
GI50 (UACC-257): > 100 µM (inactive)
GI50 (UACC-62): 43.4 µM (inactive)
GI50 (COLO 205): 28.2 µM (inactive)
GI50 (OVCAR-8): 91.2 µM (inactive)
GI50 (SW-620): 51.6 µM (inactive)
GI50 (NCI-H522): > 100 µM (inactive)
GI50 (SK-MEL-28): 80 µM (inactive)

CC1C(c2ccc(Cl)cc2)c2cc3c(cc2OC1N1CCOCC1)OCO3 (configuration not stated)
GI50 (HOP-62): 79.4 µM (inactive)
GI50 (ACHN): 35.3 µM (inactive)
GI50 (KM12): > 100 µM (inactive)
GI50 (DU-145): > 100 µM (inactive)
GI50 (PC-3): 67.3 µM (inactive)
GI50 (MDA-MB-435): 95.1 µM (inactive)
GI50 (CAKI-1): 31.8 µM (inactive)
GI50 (SK-MEL-2): 69.7 µM (inactive)
GI50 (UACC-257): 86.1 µM (inactive)
GI50 (UACC-62): 74 µM (inactive)
GI50 (COLO 205): > 100 µM (inactive)
GI50 (OVCAR-8): > 100 µM (inactive)
GI50 (SW-620): > 100 µM (inactive)
GI50 (NCI-H522): 46.3 µM (inactive)
GI50 (MCF7): > 100 µM (inactive)
GI50 (SK-MEL-28): > 100 µM (inactive)
GI50 (MDA-N): > 100 µM (inactive)
